{
  "source": "patent US20150202313A1",
  "about": "“Macromolecular Prodrugs for Hard Tissue and Methods of Use Thereof” (New York Society for The Ruptured and Crippled Maintaining …, priority 2012, published 2015)",
  "key": {"[1]": {"test_system": "open fracture mouse model (femoral shaft fracture)", "experiment": "Therapeutic efficacy in open fracture mouse model, micro-CT analysis of callus", "format": "in vivo, Swiss Webster mice", "experimental": "Ten-week-old male Swiss Webster mice were purchased from Charles River Laboratories, and maintained under standard housing conditions. The animals were acclimated for at least 1 week before any experimental procedure. Under general anesthesia with isoflurane, the hips, thighs, and knees on the right side of the animal were prepared with Betadine (povidone-iodine) solution. A 1.0 cm right medial parapatellar incision was made on the right knee. The patella was dislocated laterally to expose the femoral condyles. A 25-guage needle was introduced into the canal and driven in a retrograde intramedullary fashion to the level of the greater trochanter. Distally, the needle was cut flush with the cortex (length was about 1.4 cm) so as not to interfere with motion of the knee. […] Postoperatively, mice were placed on clean paper towels in their cages (to avoid inhalation/aspiration of the bedding material) and monitored until the animals were fully awake. The mice were monitored for signs of pain with analgesia and antibiotics given according to established protocol. […]\nFor the quantitative analysis, we specifically focused on the site of fracture callus formation. […] The following parameters were measured and calculated: callus volume (Cl.V), callus thickness (Cl.Th), callus separation (Cl.Sp) and the ratio of callus surface to volume (Cl.S/Cl.V). […]"}, "[2]": {"experiment": "Weight loss side effect during treatment", "conditions": "in vivo", "description": "Eighteen 10-week-old male Swiss Webster mice were osteotomized and randomly assigned into three groups (6 mice/group). […] The overall SIM doses given to the SIMA and SIM/SIM-mPEG were equivalent. All mice were euthanized 21 days post osteotomy."}, "[3]": {"test_system": "open fracture mouse model (femoral shaft fracture)", "experiment": "Therapeutic efficacy in open fracture mouse model, Safranin O histology of callus", "format": "in vivo, Swiss Webster mice", "conditions": "21 days post fracture", "experimental": "Ten-week-old male Swiss Webster mice were purchased from Charles River Laboratories, and maintained under standard housing conditions. The animals were acclimated for at least 1 week before any experimental procedure. Under general anesthesia with isoflurane, the hips, thighs, and knees on the right side of the animal were prepared with Betadine (povidone-iodine) solution. A 1.0 cm right medial parapatellar incision was made on the right knee. The patella was dislocated laterally to expose the femoral condyles. A 25-guage needle was introduced into the canal and driven in a retrograde intramedullary fashion to the level of the greater trochanter. Distally, the needle was cut flush with the cortex (length was about 1.4 cm) so as not to interfere with motion of the knee. Controlled unilateral transverse femoral shaft fractures were created with a #15 blade. […] Postoperatively, mice were placed on clean paper towels in their cages (to avoid inhalation/aspiration of the bedding material) and monitored until the animals were fully awake. The mice were monitored for signs of pain with analgesia and antibiotics given according to established protocol. […]\nAfter micro-CT analysis, the fractured femurs were decalcified using 14% EDTA at room temperature for 30 days. […] The specimens were then paraffin embedded, sectioned (5 μm thickness), stained with Safranin 0 and histologically evaluated."}},
  "data": [
    {"compound": "CCC(C)(C)C(=O)O[C@H]1C[C@@H](C)C=C2C=C[C@H](C)[C@H](CC[C@@H](O)C[C@@H](O)CC(=O)O)[C@H]21", "note": "[SIMA, simvastatin acid]", "values": [
      {"measurement": "quantitative morphometric indices of callus (micro-CT), comparison with CON", "setting": "[1]; 21 days post osteotomy, SIMA equiv. SIM 6 mg/kg/day i.p., micelles equiv. SIM 42 mg/kg/wk i.v.", "value": "No statistical significance"},
      {"measurement": "mineralization of the fracture callus (micro-CT images)", "setting": "[1]; 21 days post-fracture", "value": "less mineralized callus formation at the fracture site"},
      {"measurement": "side effect of weight loss", "setting": "[2]", "value": "weight loss observed"},
      {"measurement": "histological features of callus sections (Safranin O)", "setting": "[3]", "value": "intermediate stage between CON and SIM/SIM-mPEG groups"}
    ]}
  ]
}
